According to publication PMC5848165 (Toxins, 2018):

Legend:
[1] = tested on: formalin-induced paw licking response in mice; assay: Formalin-induced paw licking; type: in vivo, mouse (Kunming); conditions: 5 mg/kg i.p., n = 6
Method: Since Nav1.7 plays an important role in pain, the analgesic effects of JZTX-34 were examined in three animal models (formalin-induced paw licking, acetic acid-induced writhing, and hot plate). Intraplantar injection of formalin causes pain and can be divided into two phases. The early phase was neurogenic pain and usually occurred within […]), and the late phase was inflammatory pain lasting from 15 to 30 min).
(§1) Figure 6 Effects of JZTX-34 on pain. (A) Effects of JZTX-34 on the early phase (0–5 min) and late phase (15–30 min) of formalin-induced paw licking response in mice. (B) Effects of JZTX-34 on the acetic acid-induced writhing response in mice. (C)Effects of JZTX-34 on the hot plate test in mice.
(§2) The synthesized JZTX-34 was obtained according to the procedure as previously described. […] Rats (Sprague-Dawley) and Kunming mice were maintained in the Laboratory of Protein Chemistry of Hunan Normal University. All of the experimental involving animals were approved by the Animal Care and Use Committee of Hunan Normal University (2016-273, 13 October 2016).
Formalin test was performed according to the method described previously. […] After test samples were intraperitoneally (i.p.) injected, 5% formalin (20 μL) was injected to the plantar surface of right hind paw. The time spent licking the injected paw was counted every 5 min. Phase I was defined as 0–10 min, and Phase II defined as […].
(§3) Data from Axon 700B patch clamp were analyzed by Clampfit10.0 (Molecular Devices, Sunnyvale, CA, USA). Dose-response curves were fitted by the Hill logistic equation: y = 1 − (1 − fmax)/[…]. In this equation, n stands an empirical Hill coefficient and fmax is the fraction of current resistant to inhibition at high toxin (Tx) concentration. The G-V curves were obtained by calculating the conductance (G) at each voltage (V) using the equation G = I/(V1 − Vrev), with Vrev being the reversal potential determined for each cell individually. G-V curves were fitted using a Boltzmann equation—y = 1/(1 + exp[(Va − V)/κ])—in which Va, V, and κ represent midpoint voltage of kinetics, test potential, and slope factor, respectively. […] Statistical significance was calculated using Student’s t-test and was defined as p < 0.05.

[2] = tested on: hot plate test in mice; assay: Hot plate test; type: in vivo, mouse (Kunming); conditions: 5 mg/kg i.p., baseline about 10 s, n = 6
Method: as §1
Mice with a latency time about 10 s were selected for the hot plate test. […] After administration of test samples, the latency time was recorded at the time points of 30 min, 60 min, 120 min, and 180 min (Figure 6C). Negative control animals received the same volume of vehicle.
as §2
Mice were put on a hot plate apparatus (model HZ66-ZH-YLS-6B, Shanghai, China) in order to test response time to a thermal stimulus. The responses time of mice at about 10 s was selected for the test. […] Hind paw licking or jumping were regarded as a sign to avoid heat nociception.
as §3

[3] = tested on: C-fiber compound action potential; design: method as in PMID 28045073; conditions: desheathed cutaneous nerves; ref [27]; cited from earlier work
[4] = tested on: other sodium channel subtypes; conditions: literature statement, no reference given; cited from earlier work
[5] = tested on: Nav1.7; conditions: cited from earlier work; for potency on Nav1.7 (literature): ref [14],[15]
Source text: Chronic pain is one of the most difficult clinical problems. As Nav1.7 is considered one of the most attractive targets for relieving chronic pain, scientist have paid a lot of effort to look for a selective inhibitor of Nav1.7. Several small molecules with selectivity on Nav1.7 are currently undergoing clinical development, including PF-05089771 (Pfizer, New York, NY, USA) and CNV1014802 (Convergence Pharmaceuticals, London , UK). Compared to small molecules, peptide toxins have better subtype selectivity due to their larger pharmacophore. Spider venoms are a rich source of ion ch ... || Many peptide toxins, which alter gating properties of VGSCs, have been identified to trap the DIIS3-S4 linker of sodium channels. However, the molecular mechanisms of inhibition of sodium currents by peptide toxins are greatly divergent. […] Pro ...

[6] = tested on: inflammatory pain and neuropathic pain; conditions: cited from earlier work

| Compound | paw licking time, early phase ([1]; control 145.5 s) [s] | paw licking time, late phase ([1]; control 414.5 s) [s] | hot plate latency ([2]; 30 min) | hot plate latency ([2]; 60 min) [s] | C-fiber compound action potential [3] | activity on other sodium channel subtypes [4] | potency on Nav1.7 (literature) [5] | effect on channel gating (ProTx-II, literature) ([5]; ref [26]) | analgesic effect on severe pain ([6]; ref [27]) | effect on channel gating (HWTX-IV, literature) ([5]; ref [25]) | relief of acute inflammatory and chronic neuropathic pain ([6]; ref [28]) |
| --- | --- | --- | --- | --- | --- | --- | --- | --- | --- | --- | --- |
| CN1CC[C@]23c4c5ccc(O)c4O[C@H]2[C@@H](O)C=C[C@H]3[C@H]1C5 [morphine, reference compound] | 35.3 | 265 | 24.8 | 12.2 |  |  |  |  |  |  |  |
| ProTx-II |  |  |  |  | completely blocked the C-fiber compound action potential | also show activity on other sodium channel subtypes | very potent Nav1.7 blockers | modified the voltage dependence of VGSC inactivation | exerted a strong analgesic effect on severe pain |  |  |
| HWTX-IV |  |  |  |  |  | also show activity on other sodium channel subtypes | very potent Nav1.7 blockers |  |  | without affecting activation or inactivation of channels | efficiently eased the acute inflammatory pain and chronic neuropathic pain |
